The subject of data set [1] is Staphylococcus aureus. The data set can be described thus: Antibacterial activity against quinolone-resistant Staphylococcus aureus 3505 measured after 24 hrs by two-fold serial dilution method. Format: functional. Conditions: Staphylococcus aureus, 3505, 24 h.
Data set [2] concerns Salmonella typhimurium. The data set can be described thus: Antibacterial activity against Salmonella typhimurium 1926 measured after 24 hrs by two-fold serial dilution method. Format: functional, Salmonella enterica subsp. enterica serovar Typhimurium. The conditions noted are these: Salmonella enterica, 1926, 24 h.
Data set [3] relates to Candida albicans. The data set is described as follows: Potency index, ratio of fluconazole MIC to compound MIC against Candida albicans 7535. Format: functional.
For data set [4], the system named is Mus musculus. The data set is described as follows: Antiinflammatory activity in mouse assessed as inhibition of xylene-induced ear edema at 100 mg/kg, ip administered 30 mins before xylene challenge measured after 30 mins relative to DMSO-control. It is filed as functional.
The test system of data set [5] is Mus musculus. The data set can be described thus: Antiinflammatory activity in mouse assessed as inhibition of xylene-induced ear edema at 100 mg/kg, po administered 24 hrs before xylene challenge measured after 3 hrs. It is filed as functional.
Data set [6] has as its system Staphylococcus aureus. The data set can be described thus: Antibacterial activity against Staphylococcus aureus 4220 measured after 24 hrs by two-fold serial dilution method. Format: functional. Conditions: Staphylococcus aureus, 4220, 24 h.
In data set [7] the test system is Salmonella typhimurium. The data set can be described thus: Potency index, ratio of gatifloxacin MIC to compound MIC against Salmonella typhimurium 1926. It is filed as functional, Salmonella enterica subsp. enterica serovar Typhimurium.
In data set [8] the test system is Escherichia coli. The data set can be described thus: Antibacterial activity against Escherichia coli 1356 measured after 24 hrs by two-fold serial dilution method. Format: functional. Conditions: Escherichia coli, 1356, 24 h.
Data set [9] concerns Staphylococcus aureus. The data set is described as follows: Antibacterial activity against Staphylococcus aureus 209 measured after 24 hrs by two-fold serial dilution method. Format: functional. The conditions noted are these: Staphylococcus aureus, 209, 24 h.
Data set [10] relates to Mus musculus. The data set is described as follows: Antiinflammatory activity in mouse assessed as inhibition of xylene-induced ear edema at 100 mg/kg, po administered 4 hrs before xylene challenge measured after 3 hrs. It is filed as functional.
In data set [11] the test system is Mus musculus. The data set can be described thus: Antiinflammatory activity in mouse assessed as inhibition of xylene-induced ear edema at 100 mg/kg, po administered 2 hrs before xylene challenge measured after 3 hrs. It is filed as functional.
Data set [12] relates to Candida albicans. The data set can be described thus: Antifungal activity against Candida albicans 7535 measured after 24 hrs by two-fold serial dilution method. Format: functional. Conditions: Candida albicans, 7535, 24 h.
For data set [13], the system named is Mus musculus. The data set is described as follows: Antiinflammatory activity in mouse assessed as inhibition of xylene-induced ear edema at 100 mg/kg, po administered 1 hr before xylene challenge measured after 3 hrs. It is filed as functional.
Data set [14] is described as follows: Cytotoxicity against human HeLa cells assessed as reduction in cell viability measured after 24 hrs by MTT assay. Format: toxicity, cell-based. Background: Tetrazolium assays rely on reduction of a dye to a coloured formazan, in cell work by metabolically active cells.
Data set [15] concerns Staphylococcus aureus. The data set can be described thus: Antibacterial activity against Staphylococcus aureus 503 measured after 24 hrs by two-fold serial dilution method. It is filed as functional. Conditions: Staphylococcus aureus, 503, 24 h.
The subject of data set [16] is Staphylococcus aureus. The data set is described as follows: Antibacterial activity against methicillin-resistant Staphylococcus aureus 3506 measured after 24 hrs by two-fold serial dilution method. The conditions noted are these: Staphylococcus aureus, 3506, 24 h. Format: functional.
In data set [17] the test system is Mus musculus. The data set is described as follows: Antiinflammatory activity in mouse assessed as inhibition of xylene-induced ear edema at 25 mg/kg, po administered 2 hrs before xylene challenge measured after 3 hrs. It is filed as functional.
Another data set deals with Pseudomonas aeruginosa. The data set is described as follows: Antibacterial activity against Pseudomonas aeruginosa 2742 measured after 24 hrs by two-fold serial dilution method. Format: functional. The conditions noted are these: Pseudomonas aeruginosa, 2742, 24 h.
For the next data set, the system named is Streptococcus mutans. The data set is described as follows: Antibacterial activity against Streptococcus mutans 3065 measured after 24 hrs by two-fold serial dilution method. Format: functional. The conditions noted are these: Streptococcus mutans, 3065, 24 h.
Data set [18] deals with Mus musculus. The data set is described as follows: Antiinflammatory activity in mouse assessed as inhibition of xylene-induced ear edema at 50 mg/kg, po administered 2 hrs before xylene challenge measured after 3 hrs. It is filed as functional.
Data set [19] concerns Mus musculus. The data set can be described thus: Antiinflammatory activity in mouse assessed as inhibition of xylene-induced ear edema at 100 mg/kg, po administered 3 hrs before xylene challenge measured after 3 hrs. Format: functional.
In data set [20] the test system is Staphylococcus aureus. The data set can be described thus: Antibacterial activity against quinolone-resistant Staphylococcus aureus 3519 measured after 24 hrs by two-fold serial dilution method. It is filed as functional. The conditions noted are these: Staphylococcus aureus, 3519, 24 h.
Data set [21] relates to Escherichia coli. The data set can be described thus: Antibacterial activity against Escherichia coli 1924 measured after 24 hrs by two-fold serial dilution method. It is filed as functional. The conditions noted are these: Escherichia coli, 1924, 24 h.
The nature of data set [22]: Cytotoxicity against human Hep3B cells assessed as reduction in cell viability measured after 24 hrs by MTT assay. Format: toxicity, cell-based, Hep 3B2.
For data set [23], the system named is Mus musculus. The data set can be described thus: Antiinflammatory activity in mouse assessed as inhibition of xylene-induced ear edema at 100 mg/kg, po administered 5 hrs before xylene challenge measured after 3 hrs. Format: functional.
Data set [24] relates to Staphylococcus aureus. The data set can be described thus: Antibacterial activity against methicillin-resistant Staphylococcus aureus 3167 measured after 24 hrs by two-fold serial dilution method. Format: functional. Conditions: Staphylococcus aureus, 3167, 24 h.
The test system of data set [25] is Salmonella typhimurium. The data set is described as follows: Potency index, ratio of moxifloxin MIC to compound MIC against Salmonella typhimurium 1926. It is filed as functional, Salmonella enterica subsp. enterica serovar Typhimurium.
A short description of data set [26]: Cytotoxicity against human L02 cells assessed as reduction in cell viability measured after 24 hrs by MTT assay. Format: toxicity, cell-based.

In brackets after ≈: the same amount, converted by molar mass.

Usually MIC stands for the smallest concentration in the dilution series that meets the test's criterion for growth inhibition. Read a high MIC as weaker potency. For orientation: inhibition in vivo means the relative decrease from the control value, in per cent. A word on the IC50: it is the point on the concentration scale where inhibition reaches its midpoint. For the compound `N=C(N)N/N=C/c1ccc(/C=C/C(=O)c2ccc(Cl)cc2Cl)cc1`, the MIC is 8 µg/mL (≈ 22.1 µM) in the data set with Staphylococcus aureus [1]; 1 µg/mL (≈ 2.77 µM) against Salmonella typhimurium [2]; 2 µg/mL (≈ 5.54 µM) with Staphylococcus aureus [6]; 8 µg/mL (≈ 22.1 µM) with Escherichia coli [8]; 2 µg/mL (≈ 5.54 µM) with Staphylococcus aureus [9]; 1 µg/mL (≈ 2.77 µM) against Candida albicans [12]. Moreover, the MIC against Staphylococcus aureus [15] came out at 2 µg/mL (≈ 5.54 µM); against Staphylococcus aureus [16] it was 8 µg/mL (≈ 22.1 µM); in the data set on Pseudomonas aeruginosa it was 2 µg/mL (≈ 5.54 µM); in the data set on Streptococcus mutans, 2 µg/mL (≈ 5.54 µM); in the data set with Staphylococcus aureus [20], 16 µg/mL (≈ 44.3 µM); against Escherichia coli [21] it was 2 µg/mL (≈ 5.54 µM). In the data set with Staphylococcus aureus [24], this compound came in with an MIC of 8 µg/mL (≈ 22.1 µM). Also, the Ratio with Candida albicans [3] was 2; in the data set with Salmonella typhimurium [7] it was 1 - 2; in the data set with Salmonella typhimurium [25] it was 1. The inhibition in vivo at 100 mg/kg in the data set on Mus musculus [4] is 92.5%; with Mus musculus [5] it was 5.52%; in the data set with Mus musculus [10], 16.9%; with Mus musculus [11] it was 34.2 to 43.5%; in the data set on Mus musculus [13], 20.7%; in the data set on Mus musculus [19], 26.4%. Moreover, the inhibition in vivo at 100 mg/kg in the data set with Mus musculus [23] was 11.3%. In addition, the values for the IC50 at 24 h in data set [14], in data set [22] and in data set [26] were 8.7 µg/mL (≈ 24.1 µM), 15.3 µg/mL (≈ 42.4 µM) and 18.1 µg/mL (≈ 50.1 µM), respectively. In addition, the inhibition in vivo at 25 mg/kg in the data set on Mus musculus [17] was found to be 17.6%. The inhibition in vivo at 50 mg/kg in the data set on Mus musculus [18] was determined as 33.7%.

As for `COc1ccc2c(c1)c(CC(=O)O)c(C)n2C(=O)c1ccc(Cl)cc1` [INDOMETHACIN], the inhibition in vivo at 100 mg/kg was 89.4% with Mus musculus [4]; 5.01% in the data set on Mus musculus [5]; 15.6% in the data set on Mus musculus [10]; 30.9 to 33.3% with Mus musculus [11]; 12% with Mus musculus [13]; 18.6% in the data set with Mus musculus [19]. The inhibition in vivo at 100 mg/kg with Mus musculus [23] amounted to 10.3%. Moreover, the inhibition in vivo at 25 mg/kg in the data set on Mus musculus [17] is 4.85%. Further, the inhibition in vivo at 50 mg/kg in the data set on Mus musculus [18] amounted to 22.8%.

The values are drawn from ChEMBL document CHEMBL3868618, “Synthesis and biological evaluation of chalcone derivatives containing aminoguanidine or acylhydrazone moieties” (Bioorg Med Chem Lett, 2016).
